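Interpolation was linear, between the two tested concentrations surrounding the appropriate level; five concentrations were tested over 48 hours in 96-well plates. GI50: concentration for 50% inhibition of growth.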 Calls of active or inactive are those of the source. Cut-off read from the data, not from the text of the source: active = GI50 up to about 1.1 µM and inactive = higher. Where a SMILES comes first, the peptide text is derived from it. The star is where a group is joined. Cbz = O=C(OCc1ccccc1)*

10 compounds from ChEMBL document CHEMBL1201862, “PubChem BioAssay data set” (2004) can be followed below.

Holding throughout (assay): NCI-60 cell line screen, 48 h
Experiment [1] has as its system TK-10.
Experiment [2] relates to HT-29.
Experiment [3] relates to ACHN.
Experiment [4] deals with SK-OV-3.
Experiment [5] has as its system HCT-116.
For experiment [6], the system named is UO-31.
Experiment [7] has as its system Hs-578T.
The test system of experiment [8] is HL-60.
For experiment [9], the system named is SF-295.
For experiment [10], the system named is CCRF-CEM.
Experiment [11] concerns SNB-75.
The subject of experiment [12] is K562.
The test system of experiment [13] is SNB-19.
For experiment [14], the system named is 786-0.
The subject of experiment [15] is RXF 393.
For experiment [16], the system named is U-251.
The subject of experiment [17] is RPMI-8226.
Experiment [18] has as its system MOLT-4.
Experiment [19] has as its system CAKI-1.
The subject of experiment [20] is SF-539.

For the compound `CCCCNN`, the GI50 in [1], in [2], in experiment [3], in [4], in experiment [5] and in [6] was > 100 µM (inactive) throughout. The GI50 in experiment [7] is > 100 µM (inactive); in [8], > 100 µM (inactive); in experiment [9], > 100 µM (inactive); in [10], 43 µM (inactive); in [11], > 100 µM (inactive); in experiment [12], > 100 µM (inactive). Further, the GI50 in experiment [13], in [14], in experiment [15], in experiment [16], in experiment [17] and in experiment [18] was > 100 µM (inactive) in each case. The GI50 in experiment [19] was > 100 µM (inactive).

Turning to `COC(=O)c1cc(CC2Cc3cc4c(cc3C2=O)CCC4)cc2c1CCC2` (stereo unspecified), the GI50 is > 100 µM (inactive) in experiment [1]; 51.8 µM (inactive) in experiment [2]; > 100 µM (inactive) in [3]; > 100 µM (inactive) in [4]; 42.2 µM (inactive) in experiment [5]; > 100 µM (inactive) in [6]. Further, the GI50 in [7] was 24.8 µM (inactive); in [8], > 100 µM (inactive); in experiment [9], 35.1 µM (inactive); in experiment [10], > 100 µM (inactive); in experiment [11], 31.3 µM (inactive); in experiment [12], 39.1 µM (inactive). The GI50 in [20] was > 100 µM (inactive); in [13], > 100 µM (inactive); in [14] it was 55.2 µM (inactive); in [16] it was > 100 µM (inactive); in [17], > 100 µM (inactive); in [18] it was > 100 µM (inactive). The GI50 in experiment [19] was 64.6 µM (inactive).

Turning to `COc1cc(/C=C/C(=O)C2(C(=O)/C=C/c3cc(OC)c(OC)c(OC)c3)CCCCC2)cc(OC)c1OC`, the GI50 in [1] was 34.3 µM (inactive); in experiment [2] it was 35.7 µM (inactive); in experiment [3], 62.1 µM (inactive); in experiment [4], 68.9 µM (inactive); in experiment [5], 31.1 µM (inactive); in [6], 60.7 µM (inactive). In addition, the GI50 in experiment [7] is 29.6 µM (inactive); in experiment [8], 52 µM (inactive); in experiment [9], 34.8 µM (inactive); in [10], 34.3 µM (inactive); in experiment [11], 56.4 µM (inactive); in [12], 51.3 µM (inactive). Moreover, the GI50 in experiment [20] was 19 µM (inactive); in experiment [13], 36.6 µM (inactive); in [14], 43.2 µM (inactive); in experiment [16], 30.1 µM (inactive); in [17], 18.3 µM (inactive); in [19] it was 49.4 µM (inactive).

In the case of `O=C1C(Cl)C2(CC(/C=C/c3ccccc3Cl)=NN2c2cccc(S(=O)(=O)O)c2)N1c1nc2ccccc2s1` (stereo unspecified), the GI50 is 24.2 µM (inactive) in [1]; 98.2 µM (inactive) in experiment [2]; 42.7 µM (inactive) in experiment [3]; 49.7 µM (inactive) in experiment [5]; 4.82 µM (inactive) in experiment [6]; 81.8 µM (inactive) in experiment [7]. The GI50 in experiment [8] was 6.67 µM (inactive); in [10], 8.11 µM (inactive); in experiment [11] it was 43.5 µM (inactive); in experiment [12] it was 2.11 µM (inactive); in [20] it was 7.67 µM (inactive); in experiment [13] it was > 100 µM (inactive). The GI50 in experiment [14] is 21.9 µM (inactive); in experiment [15], 42.8 µM (inactive); in [16], 41.7 µM (inactive); in experiment [17] it was 9.29 µM (inactive); in experiment [18], 10.3 µM (inactive); in experiment [19], 17.2 µM (inactive).

Take `CC(C)(CO)CNc1cc(Cl)nc(N)n1`: the GI50 in experiment [1], in [2], in [3], in experiment [5], in experiment [6] and in [7] was > 100 µM (inactive) in each case. Also, the GI50 in experiment [8], in experiment [9], in experiment [10], in experiment [11], in experiment [12] and in experiment [20] was > 100 µM (inactive) throughout. The GI50 in experiment [14], in experiment [15], in experiment [16], in [17], in [18] and in [19] was > 100 µM (inactive) throughout.

On to `CCOC(=O)COc1ccc2c(C)cc(=O)oc2c1`, for which the GI50 in [2], in experiment [3], in experiment [5], in experiment [6], in experiment [7] and in experiment [8] was > 100 µM (inactive) throughout. The GI50 in [9], in experiment [10], in experiment [11], in experiment [12], in experiment [20] and in experiment [13] was > 100 µM (inactive) in each case. The GI50 in experiment [14], in experiment [15], in [16], in [17], in experiment [18] and in experiment [19] was > 100 µM (inactive) each time.

For the compound `Cc1nc2ccc(S(=O)(=O)Nc3ccccc3)cc2c(=O)n1NC(=O)CNc1ccccc1`, the GI50 in [1], in experiment [2], in experiment [3], in experiment [4], in experiment [5] and in [6] was > 100 µM (inactive) each time. Further, the GI50 in experiment [7], in [8], in [9], in [10], in [11] and in experiment [12] was > 100 µM (inactive) each time. Further, the GI50 in [20], in experiment [13], in experiment [14], in experiment [16], in [17] and in [18] was > 100 µM (inactive) throughout. Also, the GI50 in experiment [19] is > 100 µM (inactive).

As for `COc1cc(C=C2C(C)=NN(c3cccc(Cl)c3)C23SCC(=O)N3c2nc3ccccc3s2)ccc1O` (stereo unspecified), the GI50 was 35.3 µM (inactive) in [1]; 33 µM (inactive) in [2]; 26.1 µM (inactive) in [3]; 21.4 µM (inactive) in [4]; 24.7 µM (inactive) in experiment [5]; 30.6 µM (inactive) in [6]. Further, the GI50 in experiment [7] was 9.46 µM (inactive); in [8] it was 3.72 µM (inactive); in experiment [9], 33.6 µM (inactive); in experiment [10] it was 4.56 µM (inactive); in experiment [12] it was 17.3 µM (inactive); in [20], 24.3 µM (inactive). The GI50 in [13] is 31.8 µM (inactive); in [14], 29.5 µM (inactive); in experiment [15], 29.2 µM (inactive); in experiment [16], 18.8 µM (inactive); in experiment [17] it was 13.4 µM (inactive); in [18] it was 15.8 µM (inactive). Moreover, the GI50 in [19] was 29.6 µM (inactive).

Regarding `COC(=O)C(CC(C)C)NC(=O)C(CCCNC(=N)N)NC(=O)OCc1ccccc1` (stereo not drawn) (Cbz-Arg-Leu-OMe; configuration not given here), the GI50 in experiment [1], in experiment [2], in [3], in experiment [4], in experiment [5] and in [6] was > 100 µM (inactive) each time. Also, the GI50 in experiment [7] was > 100 µM (inactive); in experiment [8], > 100 µM (inactive); in [9] it was > 100 µM (inactive); in experiment [10] it was > 100 µM (inactive); in [11], 72.6 µM (inactive); in [12], > 100 µM (inactive). Also, the GI50 in experiment [13], in experiment [14], in experiment [15], in experiment [16], in [17] and in [18] was > 100 µM (inactive) each time. The GI50 in experiment [19] is > 100 µM (inactive).

For the compound `O=c1cc(-c2ccc(O)cc2)oc2cc(O[C@@H]3O[C@H](CO)[C@@H](O)[C@H](O)[C@H]3O)cc(O)c12` [APIGETRIN], the GI50 is > 100 µM (inactive) in [1]; 53 µM (inactive) in [2]; 26.2 µM (inactive) in experiment [3]; > 100 µM (inactive) in [4]; 33.4 µM (inactive) in [5]; 43.2 µM (inactive) in experiment [6]. Moreover, the GI50 in experiment [7] is 40 µM (inactive); in [8], 80.5 µM (inactive); in experiment [9], 62.8 µM (inactive); in experiment [10], 75.9 µM (inactive); in experiment [11] it was 40.8 µM (inactive); in experiment [12], 77.8 µM (inactive). In addition, the GI50 was 48.5 µM (inactive) in [20]; 39.4 µM (inactive) in experiment [13]; > 100 µM (inactive) in experiment [14]; 71 µM (inactive) in [16]; > 100 µM (inactive) in [17]; 32.5 µM (inactive) in experiment [18]. Besides, the GI50 in experiment [19] was 0.239 µM (active).
